Each block holds one compound with its values, some of them ahead of it.
Test system: 695427-040-R-J1-PDC complex spheroid viability
Test: Anticancer human tumor 695427-040-R-J1-PDC patient-derived colon adenocarcinoma cell line growth inhibition [RAS]
Conditions: for IC50: curve of first compound; for viability, T/C: stronger effect = lower value
Excerpt: RAS pathway inhibitors in Combinations in Complex Spheroids
A high-throughput screen of multi-cell type tumor spheroids was designed to identify active combinations of RAS pathway inhibitors and targeted small molecules. Complex spheroids include a stromal component modeled by human endothelial cells (HUVEC) and fibroblasts modeled by human mesenchymal stem cells (MSCs). The concentration ranges selected for each drug and investigational agent were based upon clinically achievable concentrations if the clinical Cmax of the agent was known.
Compounds. The drugs and investigational agents: abemaciclib (NSC768073), cobimetinib (NSC768068), divarasib (GDC6063, NSC841802), docetaxel (NSC628503), GDC-1971 (RLY-1971, NSC841576), gemcitabine (NSC613327), inavolisib (NSC800729), ipatasertib (NSC767898), KB-0742 (NSC834161), MRTX-1133 (NSC836407), osimertinib (NSC779217), RMC-4630 (NSC839698), RMC-6236 (NSC851965), RMC-6291 (NSC852671), Ro-3306 (NSC812927), sapanisertib (NSC764658), SN-38 (NSC673596), staurosporine (NSC755774), SY5609 (NSC837396), and tovorafenib (DAY101, NSC766906), were obtained from the National Cancer Institute (NCI) Developmental Therapeutics Program Chemical Repository. The FDA-approved anticancer drug set is available from the NCI Developmental Therapeutics Program. […] The stock solutions were prepared in dimethyl sulfoxide (DMSO, Sigma-Aldrich, St. Louis, MO, cat. D2650) at 800-fold the tested concentration and stored at -70 degrees C prior to their use. All drugs and investigational agents were tested over a range starting from a high concentration at or near the clinical Cmax and decreasing in half-log increments. If the clinical Cmax for an agent had not been determined, the highest concentration tested was 10 microM.
Cell Culture. All cells were maintained in an incubator at 37 degrees C and 5% CO2 with 95% humidity. The PDC lines were cultured according to standard operating procedures established by the NCI PDMR. All PDCs were thawed and cultured in Matrigel-coated flasks prepared with a working solution of 1X Ham's F-12 nutrient mix, without supplementation (Invitrogen, Waltham, MA, cat. 11765054), 100 U/mL penicillin-streptomycin (Invitrogen, cat. 15140122), and 2.5% Matrigel (Corning Inc., Corning, NY, cat. 354248) for the first three passages. The 362531-283-R-J2-PDC and 782815-120-R-J1-PDC lines were cultured in 6C/Colon 1B media, which includes advanced DMEM/F-12 (Thermo Fisher Scientific, cat. 12634028), 10 mM HEPES (Thermo Fisher Scientific, cat. 15630080), 1X GlutaMAX supplement (Thermo Fisher Scientific, cat. 35050061), 0.1 mg/mL primocin (InvivoGen, San Diego, CA, cat. ant-pm-2), 10% defined fetal bovine serum, heat inactivated (HyClone Laboratories Inc., Logan, UT, cat. SH30070.03HI), 50% L-WRN conditioned media (ATCC, cat. CRL-3276), 1.25 mM N-Acetyl-L-cysteine (Sigma-Aldrich, cat. A9165), 10 mM nicotinamide (Sigma-Aldrich, cat. N0636), 1X B-27 supplement (Thermo Fisher Scientific, cat. 17504044), 1X N-2 supplement (Thermo Fisher Scientific, cat. 17502048), 50 ng/mL human EGF (Thermo Fisher Scientific, cat. PHG0311), and 10 microM Y-27632 dihydrochloride (Tocris Bioscience, cat. 1254). The K12877-001-R-J1-PDC line was cultured in 6I media, which includes all 6C/Colon 1B media plus 10 ng/mL human FGF-10 (PeproTech, cat. 100-26), 1 ng/mL human FGF-2 (PeproTech, cat. 100-18B), 1 µM prostaglandin E2 (Tocris Bioscience, cat. 2296), […] hydrocortisone (Sigma-Aldrich, cat. H4001), and […] bovine insulin (Sigma-Aldrich, cat. I6634). The K86415-001-R-J1-PDC line was cultured in 6D media, which includes all 6C/Colon 1B media components minus the L-WRN conditioned media. The 485176-168-R4-J1-PDC was cultured in PANC media, which includes all 6C/Colon 1B media plus 100 ng/mL human FGF-10 (PeproTech, cat. 100-26), 500 nM SB-431542 (Selleckchem, cat. S1067), and 10 nM gastrin (Tocris Bioscience, cat. 3006). […]
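Further: viability read after seven days of drug exposure.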
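Wherever viability, T/C is given: 100% = DMSO vehicle control viability.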

- IC50 (second compound 0.000949 µM): > 10000 nM
- IC50 (second compound 0.003 µM): > 10000 nM
- IC50 (second compound 0.00949 µM): > 10000 nM
- IC50 (second compound 0.03 µM): > 10000 nM
- IC50 (second compound 0.0949 µM): > 10000 nM
- IC50 (second compound 0.3 µM): > 10000 nM
SMILES: C[C@@H](NC(=O)c1ncnc(N)c1Cl)c1ncc(C(=O)Nc2cc(C(F)(F)F)c(Cl)cn2)s1 + CCn1c(-c2cccnc2C(C)OC)c2c3cc(ccc31)N1CCOC(CC(NC(=O)C(C(C)C)N(C)C(=O)C3(F)CCN(C(=O)C#CC(C)(C)N(C)C)CC3)C(=O)N3CCCC(N3)C(=O)OCC(C)(C)C2)C1
- viability, T/C (second compound 0.000949 µM, first compound 0.0316 µM): 86.3%
- viability, T/C (second compound 0.000949 µM, first compound 0.1 µM): 99.1%
- viability, T/C (second compound 0.000949 µM, first compound 0.316 µM): 92.7%
- viability, T/C (second compound 0.000949 µM, first compound 1 µM): 106%
- viability, T/C (second compound 0.000949 µM, first compound 3.16 µM): 96.8%
- viability, T/C (second compound 0.000949 µM, first compound 10 µM): 85.7%
- viability, T/C (second compound 0.003 µM, first compound 0.0316 µM): 82.2%
- viability, T/C (second compound 0.003 µM, first compound 0.1 µM): 93.6%
- viability, T/C (second compound 0.003 µM, first compound 0.316 µM): 113%
- viability, T/C (second compound 0.003 µM, first compound 1 µM): 98.3%
- viability, T/C (second compound 0.003 µM, first compound 3.16 µM): 99.2%
- viability, T/C (second compound 0.003 µM, first compound 10 µM): 68.5%
- viability, T/C (second compound 0.00949 µM, first compound 0.0316 µM): 96.3%
- viability, T/C (second compound 0.00949 µM, first compound 0.1 µM): 81.6%
- viability, T/C (second compound 0.00949 µM, first compound 0.316 µM): 105%
- viability, T/C (second compound 0.00949 µM, first compound 1 µM): 80.2%
- viability, T/C (second compound 0.00949 µM, first compound 3.16 µM): 102%
- viability, T/C (second compound 0.00949 µM, first compound 10 µM): 78.1%
- viability, T/C (second compound 0.03 µM, first compound 0.0316 µM): 81%
- viability, T/C (second compound 0.03 µM, first compound 0.1 µM): 99%
- viability, T/C (second compound 0.03 µM, first compound 0.316 µM): 115%
- viability, T/C (second compound 0.03 µM, first compound 1 µM): 97.5%
- viability, T/C (second compound 0.03 µM, first compound 3.16 µM): 104%
- viability, T/C (second compound 0.03 µM, first compound 10 µM): 82.4%
- viability, T/C (second compound 0.0949 µM, first compound 0.0316 µM): 67.9%
- viability, T/C (second compound 0.0949 µM, first compound 0.1 µM): 97.3%
- viability, T/C (second compound 0.0949 µM, first compound 0.316 µM): 96.6%
- viability, T/C (second compound 0.0949 µM, first compound 1 µM): 104%
- viability, T/C (second compound 0.0949 µM, first compound 3.16 µM): 89.8%
- viability, T/C (second compound 0.0949 µM, first compound 10 µM): 67.1%
- viability, T/C (second compound 0.3 µM, first compound 0.0316 µM): 78.8%
- viability, T/C (second compound 0.3 µM, first compound 0.1 µM): 94.4%
- viability, T/C (second compound 0.3 µM, first compound 0.316 µM): 94.7%
- viability, T/C (second compound 0.3 µM, first compound 1 µM): 98%
- viability, T/C (second compound 0.3 µM, first compound 3.16 µM): 97.8%
- viability, T/C (second compound 0.3 µM, first compound 10 µM): 67.9%

- IC50 (second compound 0.0316 µM): > 100 nM
- IC50 (second compound 0.1 µM): > 100 nM
- IC50 (second compound 0.316 µM): > 100 nM
- IC50 (second compound 1 µM): 22.5 nM
- IC50 (second compound 3.16 µM): 2.77 nM
- IC50 (second compound 10 µM): < 0.316 nM
SMILES: CC(C)n1nc(-c2ccc3oc(N)nc3c2)c2c(N)ncnc21 + C#Cc1c(F)ccc2cc(O)cc(-c3ncc4c(N5CC6CCC(C5)N6)nc(OCC56CCCN5CC(F)C6)nc4c3F)c12
- viability, T/C (second compound 0.0316 µM, first compound 0.000316 µM): 105%
- viability, T/C (second compound 0.0316 µM, first compound 0.001 µM): 95.1%
- viability, T/C (second compound 0.0316 µM, first compound 0.00316 µM): 88.5%
- viability, T/C (second compound 0.0316 µM, first compound 0.01 µM): 75.7%
- viability, T/C (second compound 0.0316 µM, first compound 0.0316 µM): 70.3%
- viability, T/C (second compound 0.0316 µM, first compound 0.1 µM): 62.6%
- viability, T/C (second compound 0.1 µM, first compound 0.000316 µM): 93.9%
- viability, T/C (second compound 0.1 µM, first compound 0.001 µM): 89.4%
- viability, T/C (second compound 0.1 µM, first compound 0.00316 µM): 90%
- viability, T/C (second compound 0.1 µM, first compound 0.01 µM): 74.9%
- viability, T/C (second compound 0.1 µM, first compound 0.0316 µM): 74.7%
- viability, T/C (second compound 0.1 µM, first compound 0.1 µM): 55.9%
- viability, T/C (second compound 0.316 µM, first compound 0.000316 µM): 91.9%
- viability, T/C (second compound 0.316 µM, first compound 0.001 µM): 80.9%
- viability, T/C (second compound 0.316 µM, first compound 0.00316 µM): 78.6%
- viability, T/C (second compound 0.316 µM, first compound 0.01 µM): 68.8%
- viability, T/C (second compound 0.316 µM, first compound 0.0316 µM): 61.5%
- viability, T/C (second compound 0.316 µM, first compound 0.1 µM): 50.5%
- viability, T/C (second compound 1 µM, first compound 0.000316 µM): 69.5%
- viability, T/C (second compound 1 µM, first compound 0.001 µM): 64.3%
- viability, T/C (second compound 1 µM, first compound 0.00316 µM): 63%
- viability, T/C (second compound 1 µM, first compound 0.01 µM): 52.4%
- viability, T/C (second compound 1 µM, first compound 0.0316 µM): 47.8%
- viability, T/C (second compound 1 µM, first compound 0.1 µM): 42.1%
- viability, T/C (second compound 3.16 µM, first compound 0.000316 µM): 51.1%
- viability, T/C (second compound 3.16 µM, first compound 0.001 µM): 58.7%
- viability, T/C (second compound 3.16 µM, first compound 0.00316 µM): 47.4%
- viability, T/C (second compound 3.16 µM, first compound 0.01 µM): 42.1%
- viability, T/C (second compound 3.16 µM, first compound 0.0316 µM): 35.4%
- viability, T/C (second compound 3.16 µM, first compound 0.1 µM): 26.7%
- viability, T/C (second compound 10 µM, first compound 0.000316 µM): 41.5%
- viability, T/C (second compound 10 µM, first compound 0.001 µM): 33.5%
- viability, T/C (second compound 10 µM, first compound 0.00316 µM): 35%
- viability, T/C (second compound 10 µM, first compound 0.01 µM): 27%
- viability, T/C (second compound 10 µM, first compound 0.0316 µM): 25%
- viability, T/C (second compound 10 µM, first compound 0.1 µM): 14.5%
